According to publication PMC9181938, “Fluorinated Analogues of Lepidilines A and C: Synthesis and Screening of Their Anticancer and Antiviral Activity” (Molecules, 2022):
Read-outs that look alike come from different tables or passages of the source.

Key:
[1] = Cytotoxicity MTT assay (0.1–1000 µM), CC50; type: cell-based, Macaca mulatta; conditions: Macaca mulatta, LLC-MK2 cells
[2] = Cytotoxicity screening at 10 µM (MTT); type: cell-based, Mus musculus; conditions: Mus musculus, NCTC clone 929 cells, read-out: Cell line (viability %) NCTC clone 929
[3] = Cytotoxicity screening at 10 µM (MTT); type: cell-based, Human; conditions: human, HeLa cells, read-out: Cell line (viability %) HeLa
[4] = tested on: Encephalomyocarditis virus (EMCV); assay: Antiviral activity assay (0.1–1000 µM), IC50; type: cell-based; conditions: Cardiovirus A, Table S4, range 0.1-1000 µM, read-out: IC50 (M) EMCV
Summary of the method: (§1)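 Confluent cell monolayers were infected (AdV5 and EMCV MOI 0.005, HPIV-3 MOI 0.01, 1-h adsorption; HCMV 20 PFU/well, 2-h adsorption), then incubated at 37 °C with compounds (0.1–1000 µM) in 2% FBS MEM until CPE appeared. Infection was read by MTT or, for HCMV, plaque counting. IC50 was the concentration halving plaques versus untreated infected controls.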

[5] = tested on: Human adenovirus 5 (AdV5); assay: Antiviral activity assay (0.1–1000 µM), IC50; type: cell-based; conditions: Human mastadenovirus C; Table S4, range 0.1-1000 µM, AdV5; read-out: IC50 (M) AdV5
Summary of the method: as §1

[6] = tested on: Human parainfluenza virus type 3 (HPIV-3); assay: Antiviral activity assay (0.1–1000 µM), IC50; type: cell-based; conditions: Human respirovirus 3, Table S4, range 0.1-1000 µM, HPIV-3; read-out: IC50 (M) HPIV-3
Summary of the method: as §1

[7] = tested on: Human herpesvirus 5 (HCMV); assay: Antiviral screening at 10 µM, plaque reduction; type: cell-based; conditions: Human betaherpesvirus 5, antiviral screening, HCMV-infected cells, read-out: Cell line (viability %) HCMV
Description: Antiviral properties of compounds 1a, 1c, 1a[PF6], 1c[PF6], 9b[PF6], 9c[PF6], 10a–10d, 2a, and 2b were assessed against five viruses: Human herpesvirus 1 (HSV-1, VR-539), Human parainfluenza virus type 3 (HPIV-3, VR-93), Human adenovirus 5 (AdV5, VR-5), Human herpesvirus 5 (HCMV, VR-977), and Encephalomyocarditis virus (EMCV, VR-1479). Viruses were purchased from the American Type Culture Collection (ATCC, Manassas, VA, USA).
All tested compounds were dissolved in DMSO (dimethyl sulfoxide, Sigma-Aldrich, Darmstadt, Germany) and then suspended in Minimum Essential Medium (MEM; Sigma-Aldrich, Darmstadt, Germany) supplemented with 2% heat-inactivated fetal bovine serum (FBS; Sigma-Aldrich, Darmstadt, Germany), 2 mM L-glutamine (Sigma-Aldrich, Darmstadt, Germany), and 100 units/mL penicillin G with […] streptomycin (Sigma-Aldrich, Darmstadt, Germany).
Vero, LLC-MK2, NCTC clone 929, MRC-5, and HeLa cells were propagated in Minimum Essential Medium (MEM; Sigma-Aldrich, Darmstadt, Germany) supplemented with 10% heat-inactivated fetal bovine serum (FBS; Sigma-Aldrich, Darmstadt, Germany) and 100 units/mL penicillin G with […] streptomycin (Sigma-Aldrich, Darmstadt, Germany). Upon reaching 80–90% confluency, cells were harvested with 0.25% trypsin in 1 mM EDTA (Life Technologies, Warsaw, Poland) and seeded onto 96-well microplates at 2 × 10^5 cells/mL. After overnight incubation of cells at 37 °C in a humidified atmosphere containing 5% CO2, the culture medium was removed, and cells were inoculated with the respective virus solution in MEM supplemented with 2% FBS and antibiotics (HSV-1 MOI 0.005, 1000 virions/mL; HPIV-3 MOI 0.01, 2000 virions/mL; AdV5 MOI 0.005, 1000 virions/mL, EMCV MOI 0.005, 1000 virions/mL, HCMV 20 PFU (plaque forming units) per well). After a 1-h (HSV-1, HPIV-3, AdV5, and EMCV) or 2-h adsorption period (HCMV), the residual virus was removed, and the infected cells were further incubated with a 100 μL freshly prepared solution of tested compounds diluted with a maintenance medium supplemented with 2% FBS to obtain compound concentrations of 10 µM. The final concentration of DMSO in the medium was 0.1%. All experiments were carried out in triplicate. The cells monolayers were incubated with the compounds at 37 °C in a humidified atmosphere containing 5% CO2 until the typical cytopathic effect (CPE) was visible. Viral infection was evaluated by the MTT assay or plaque reduction assay (HCMV). After incubation with drugs, the cells were treated with 3-(4,5-dimethylthiazol-2-yl)-2,5-diphenyltetrazolium bromide dye solution (MTT, Sigma-Aldrich, Darmstadt, Germany) (25 μL, 5 mg/mL) for 2 h and lysed with solvent solution (100 μL) containing: DMF (Sigma-Aldrich, Darmstadt, Germany) (45 mL), SDS (Sigma-Aldrich, Darmstadt, Germany) (13.5 g), and distilled water (55 mL). After overnight incubation at 37 °C, the optical density at 550 nm and a reference wavelength of 670 nm were measured on a microplate spectrophotometer, Varioskan Lux (Thermo Fisher Scientific, Waltham, MA, USA). The number of HCMV plaques was counted under an inverted microscope Olympus IX73 (Olympus, Tokyo, Japan).

Which CC50 at 48 h ([1]; LLC-MK2, MTT, 48 h, read-out: CC50 Normal Cell Lines LLC-MK2) does the source give for `Cc1c(C)n(Cc2ccccc2)c(=S)n1Cc1ccccc1` [Compound 10a] here?
The CC50 at 48 h was less than 20 µM.

What about the CC50 at 48 h ([1]; Table S2, range 0.1-1000 µM, LLC-MK2, read-out: Cell line (CC50 M) LLC-MK2) of the same compound?
The CC50 at 48 h was 16.2 ± 3.75 µM.

What about the viability at 48 h, 10 µM [2] of the same compound?
The viability at 48 h, 10 µM was 93.8%.

And the viability at 48 h, 10 µM [3]?
Its viability at 48 h, 10 µM is 61.1%.

And the IC50 [4]?
The IC50 was greater than 4.6e-05 M.

What about the IC50 [5] of the same compound?
The IC50 was greater than 1.69e-05 M.

What about the IC50 [6] of the same compound?
The IC50 was greater than 1.62e-05 M.

And the viability at 10 µM [7]?
The viability at 10 µM was 3.6%.
